According to patent US20220098203A1 (priority 2018, published 2022):
Like-named read-outs stand apart in the source and are kept apart here.

Columns and labels:
[1] = system: HCT116 MTAP+/+; assay: Inhibition of cellular proliferation (Cell Titer Glo), HCT116 MTAP+/+; format: cell-based; conditions: Homo sapiens, HCT-116, 96 h, Table 5a, 4 days, read-out: 4 Day Relative Growth Inhibition (MTAP +/+)
In short: (§1)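 After 4 days of compound exposure at 37 °C, starting 24 h after plating, growth of the MTAP-wildtype and MTAP-deleted HCT116 pair was measured as ATP luminescence (CellTiter-Glo). The proliferation index was signal minus no-cell blank, divided by blank-corrected 0.2% DMSO control.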

[2] = system: SAM in HCT116 MTAP-deleted cells; assay: Cellular assay of target engagement (SAM), LC-MS/MS; format: cell-based, human; conditions: 72 h, read-out: Cell 72 h SAM Inhibition (MTAP −/−)
In short: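 Target engagement was read as intracellular SAM, measured by LC-MS/MS with d3-SAM as internal standard in methanol/acetic acid extracts. These came from MTAP-deleted HCT116 colon carcinoma cells exposed to inhibitor for 72 hrs.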

[3] = system: HCT116 MTAP-/-; assay: Inhibition of cellular proliferation (Cell Titer Glo), HCT116 MTAP-/-; format: cell-based, human; conditions: 4 days, read-out: 4 Day Relative Growth Inhibition (MTAP −/−)
In short: as §1

[4] = biological target: T1, MAT2A homodimer (Homo sapiens, UniProt P31153); assay: MAT2A biochemical assay (liberated phosphate, PiColorLock Gold); conditions: Table 5a; MAT2A biochemical assay; read-out: Enzyme Inhibition
T1 construct: inferred from the Ni sepharose purification and imidazole elution; made in house; host or cells: SF9 insect cells, recombinant baculovirus (Bac to Bac, pFASTBAC1)
In short: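 Readout is liberated phosphate (PiColorLock Gold), stoichiometric with SAM production, quantified against a potassium phosphate standard curve. Enzyme: recombinant MAT2A homodimer from Sf9, equilibrated 60 min at 25 °C with compound before 60 min reaction with substrate mix containing 500 μM ATP and 400 μM L-methionine.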

[5] = Homo sapiens, HCT-116, Table 5a
[6] = Table 6, select pairs of compounds
[7] = Homo sapiens, HCT-116, 96 h, Table 5a

T1 sequence (P31153 whole entry): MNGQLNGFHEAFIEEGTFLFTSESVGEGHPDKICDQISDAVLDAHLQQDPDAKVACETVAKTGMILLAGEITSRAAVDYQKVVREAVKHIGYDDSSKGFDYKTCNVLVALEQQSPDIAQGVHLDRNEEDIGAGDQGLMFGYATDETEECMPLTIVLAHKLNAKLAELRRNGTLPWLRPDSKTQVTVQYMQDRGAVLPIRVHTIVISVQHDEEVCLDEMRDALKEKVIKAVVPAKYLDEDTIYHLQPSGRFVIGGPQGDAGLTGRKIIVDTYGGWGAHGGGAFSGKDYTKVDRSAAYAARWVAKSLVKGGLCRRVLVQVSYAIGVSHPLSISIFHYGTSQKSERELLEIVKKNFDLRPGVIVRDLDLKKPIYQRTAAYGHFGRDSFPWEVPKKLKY

Row | Compound | IC50 [1] | IC50 [2, 5] | IC50 [2, 6] | IC50 [3, 7] | IC50 [3, 6] | IC50 [4]
1 | COc1ccc(N2C(=O)N(c3ccc4nn(C)cc4c3)Cc3ccc(SCC(F)(F)F)nc32)cc1 [Example 161, 1-(4-methoxyphenyl)-3-(2-methyl-2H-indazol-5-yl)-7-((2,2,2-trifluoroethyl)thio)-3,4-dihydropyrido[2,3-d]pyrimidin-2(1H)-one] | > 1000 nM | 100 to 1000 nM | 100 to 1000 nM | 100 to 1000 nM | 100 to 1000 nM | < 100 nM
2 | [2H]C([2H])([2H])Oc1ccc(N2C(=O)N(c3ccc4nn(C)cc4c3)Cc3cnc(NCC(F)F)nc32)cc1 [Example 420, 7-((2,2-difluoroethyl)amino)-1-(4-(methoxy-d3)phenyl)-3-(2-methyl-2H-indazol-5-yl)-3,4-dihydropyrimido[4,5-d]pyrimidin-2(1H)-one] | 100 to 1000 nM | < 100 nM |  | 100 to 1000 nM |  | < 100 nM
3 | [2H]C([2H])([2H])Oc1ccc(N2C(=O)N(c3ccc4nn(CCF)cc4c3)Cc3ccc(OCC(F)F)nc32)cc1 [Example 129, 7-(2,2-difluoroethoxy)-3-(2-(2-fluoroethyl)-2H-indazol-5-yl)-1-(4-methoxy-d3-phenyl)-3,4-dihydropyrido[2,3-d]pyrimidin7-2(1H)-one] | > 1000 nM | 100 to 1000 nM |  | 100 to 1000 nM |  | < 100 nM
4 | COc1ccc(N2C(=O)N(c3ccc4ncccc4c3)Cc3cnc(NCC(F)(F)F)nc32)cc1 [Example 241] | > 1000 nM | 100 to 1000 nM |  | 100 to 1000 nM |  | < 100 nM
5 | Cn1cc2cc(N3Cc4ccc(OCC(F)F)nc4N(c4ccc5[nH]cc(C#N)c5c4)C3=O)ccc2n1 [Example 410, 5-(7-(2,2-difluoroethoxy)-3-(2-methyl-2H-indazol-5-yl)-2-oxo-3,4-dihydropyrido[2,3-d]pyrimidin-1(2H)-yl)-1H-indole-3-carbonitrile] | > 1000 nM | < 100 nM |  | 100 to 1000 nM |  | < 100 nM
6 | COc1ccc(N2Cc3ccc(NCC(F)(F)F)nc3N(c3ccc(Cl)cc3)C2=O)cc1 [Example 407, 1-(4-chlorophenyl)-3-(4-methoxyphenyl)-7-((2,2,2-trifluoroethyl)amino)-3,4-dihydropyrido[2,3-d]pyrimidin-2(1H)-one] | > 1000 nM | > 1000 nM |  | > 1000 nM |  | 100 to 1000 nM
7 | CCOc1ccc2c(n1)N(c1ccc(C(F)F)nc1)C(=O)N(c1ccc3nn(C)cc3c1)C2 [Example 149, 1-(6-(difluoromethyl)pyridin-3-yl)-7-ethoxy-3-(2-methyl-2H-indazol-5-yl)-3,4-dihydropyrido[2,3-d]pyrimidin-2(1H)-one] | > 1000 nM | 100 to 1000 nM |  | < 100 nM |  | < 100 nM
8 | COc1ccc(N2Cc3cnc(NCC(F)(F)F)nc3N(c3ccc(OC(F)F)cc3)C2=O)cc1 [Example 235, 1-(4-(Difluoromethoxy)phenyl)-3-(4-methoxyphenyl)-7-(2,2,2-trifluoroethylamino)-3,4-dihydropyrimido[4,5-d]pyrimidin-2(1H)-one] | > 1000 nM | 100 to 1000 nM |  | 100 to 1000 nM |  | < 100 nM
9 | [2H]C([2H])([2H])Oc1ccc(N2C(=O)N(c3ccc4nn(C)cc4c3)Cc3ccc(OC(C)C)nc32)cc1 [Example 167, 7-isopropoxy-1-(4-methoxy-d3-phenyl)-3-(2-methyl-2H-indazol-5-yl)-3,4-dihydropyrido[2,3-d]pyrimidin-2(1H)-one] | > 1000 nM | < 100 nM |  | < 100 nM |  | < 100 nM
10 | CCOc1ccc2c(n1)N(c1ccc(OC(F)F)cc1)C(=O)N(c1ccc3nn(C)nc3c1)C2 [Example 110, 1-(4-(difluoromethoxy)phenyl)-7-ethoxy-3-(2-methyl-2H-benzo[d][1,2,3]triazol-5-yl)-3,4-dihydropyrido[2,3-d]pyrimidin-2(1H)-one] | > 1000 nM | < 100 nM |  | 100 to 1000 nM |  | < 100 nM
